Data reported in patent US20200181117A1, “SUBSTITUTED 3-HETEROARYLOXY-1H-PYRAZOLES AND SALTS THEREOF AND THEIR USE AS HERBICIDAL ACTIVE SUBSTANCES” (BAYER CROPSCIENCE AKTIENGESELLSCHAFT, priority 2017, published 2020).

Columns and labels:
Assay type in all cases: in vivo
[1] = test system: Abutilon theophrasti; assay: Post-emergence herbicidal action; conditions: 1280 g/ha, rated visually after about 3 weeks vs untreated controls
Protocol: (§1) A. Post-Emergence Herbicidal Action and Crop Plant Compatibility Seeds of monocotyledonous and dicotyledonous weeds and crop plants were placed in sandy loam in plastic or wood-fiber pots, covered with soil and cultivated in a greenhouse under controlled growth conditions. 2 to 3 weeks after sowing, the test plants were treated at the one-leaf stage. The compounds of the invention, formulated in the form of wettable powders (WP) or as emulsion concentrates (EC), were then sprayed onto the green parts of the plants as aqueous suspension or emulsion with addition of 0.5% additive at a water application rate of 600 l/ha (converted). After the test plants had been kept in the greenhouse under optimum growth conditions for about 3 weeks, the activity of the preparations was rated visually in comparison to untreated controls. For example, 100% activity=the plants have died, 0% activity=like control plants. Tables B1 to B15 below show the effects of selected compounds of the general formula (I) according to Table I on various harmful plants and an application rate corresponding to 1280 g/ha, which were obtained by the experimental procedure mentioned above.

[2] = test system: Amaranthus retroflexus; assay: Post-emergence herbicidal action; conditions: 1280 g/ha, rated visually after about 3 weeks vs untreated controls
Protocol: as §1

[3] = test system: Pharbitis purpurea; assay: Post-emergence herbicidal action; conditions: 1280 g/ha, rated visually after about 3 weeks vs untreated controls
Protocol: as §1

[4] = test system: Viola tricolor; assay: Post-emergence herbicidal action; conditions: 1280 g/ha, rated visually after about 3 weeks vs untreated controls
Protocol: as §1

[5] = test system: Abutilon theophrasti; assay: Pre-emergence herbicidal action; conditions: 1280 g/ha, scored visually after about 3 weeks vs untreated controls
Source text: (§2) Pre-Emergence Herbicidal Action and Crop Plant Compatibility Seeds of monocotyledonous and dicotyledonous weed plants and crop plants were placed in plastic or wood fiber pots and covered with soil. The compounds of the invention, formulated in the form of wettable powders (WP) or as emulsion concentrates (EC), were then applied onto the surface of the covering soil as aqueous suspension or emulsion with addition of 0.5% additive at a water application rate of 600 l/ha (converted). After the treatment, the pots were placed in a greenhouse and kept under good growth conditions for the test plants. After about 3 weeks, the effect of the preparations was scored visually in comparison with untreated controls as percentages. For example, 100% activity=the plants have died, 0% activity=like control plants. Tables C1 to C14 below show the effects of selected compounds of the general formula (I) according to Table I on various harmful plants and an application rate corresponding to 1280 g/ha, which were obtained by the experimental procedure mentioned above.

[6] = test system: Amaranthus retroflexus; assay: Pre-emergence herbicidal action; conditions: 1280 g/ha, scored visually after about 3 weeks vs untreated controls
Source text: as §2

[7] = test system: Setaria viridis; assay: Pre-emergence herbicidal action; conditions: 1280 g/ha, scored visually after about 3 weeks vs untreated controls
Source text: as §2

[8] = test system: Stellaria media; assay: Pre-emergence herbicidal action; conditions: 1280 g/ha, scored visually after about 3 weeks vs untreated controls
Source text: as §2

[9] = test system: Viola tricolor; assay: Pre-emergence herbicidal action; conditions: 1280 g/ha, scored visually after about 3 weeks vs untreated controls
Source text: as §2

[10] = test system: Polygonum convolvulus; assay: Post-emergence herbicidal action; conditions: 1280 g/ha, rated visually after about 3 weeks vs untreated controls
Protocol: as §1

[11] = test system: Stellaria media; assay: Post-emergence herbicidal action; conditions: 1280 g/ha, rated visually after about 3 weeks vs untreated controls
Protocol: as §1

[12] = test system: Alopecurus myosuroides; assay: Pre-emergence herbicidal action; conditions: 1280 g/ha, scored visually after about 3 weeks vs untreated controls
Source text: as §2

[13] = test system: Avena fatua; assay: Pre-emergence herbicidal action; conditions: 1280 g/ha, scored visually after about 3 weeks vs untreated controls
Source text: as §2

[14] = test system: Matricaria inodora; assay: Pre-emergence herbicidal action; conditions: 1280 g/ha, scored visually after about 3 weeks vs untreated controls
Source text: as §2

[15] = test system: Polygonum convolvulus; assay: Pre-emergence herbicidal action; conditions: 1280 g/ha, scored visually after about 3 weeks vs untreated controls
Source text: as §2

[16] = test system: Veronica persica; assay: Pre-emergence herbicidal action; conditions: 1280 g/ha, scored visually after about 3 weeks vs untreated controls
Source text: as §2

[17] = test system: Alopecurus myosuroides; assay: Post-emergence herbicidal action; conditions: 1280 g/ha, rated visually after about 3 weeks vs untreated controls
Protocol: as §1

[18] = test system: Setaria viridis; assay: Post-emergence herbicidal action; conditions: 1280 g/ha, rated visually after about 3 weeks vs untreated controls
Protocol: as §1

[19] = test system: Echinochloa crus-galli; assay: Pre-emergence herbicidal action; conditions: 1280 g/ha, scored visually after about 3 weeks vs untreated controls
Source text: as §2

[20] = test system: Hordeum murinum; assay: Pre-emergence herbicidal action; conditions: 1280 g/ha, scored visually after about 3 weeks vs untreated controls
Source text: as §2

[21] = test system: Lolium rigidum; assay: Pre-emergence herbicidal action; conditions: 1280 g/ha, scored visually after about 3 weeks vs untreated controls
Source text: as §2

Row | Structure (SMILES) | herbicidal activity on Abutilon theophrasti [1] [%] | herbicidal activity on Amaranthus retroflexus [2] [%] | herbicidal activity on Viola tricolor [4] [%] | herbicidal activity on Abutilon theophrasti [5] [%] | herbicidal activity on Amaranthus retroflexus [6] [%] | herbicidal activity on Setaria viridis [7] [%] | herbicidal activity on Stellaria media [8] [%] | herbicidal activity on Viola tricolor [9] [%] | herbicidal activity on Polygonum convolvulus [10] [%] | herbicidal activity on Alopecurus myosuroides [12] [%] | herbicidal activity on Matricaria inodora [14] [%] | herbicidal activity on Polygonum convolvulus [15] [%] | herbicidal activity on Veronica persica [16] [%] | herbicidal activity on Echinochloa crus-galli [19] [%] | also measured
1 | CCc1c(Sc2cccc(Cl)c2)c(Oc2ncc(F)cn2)nn1C [Example I-034] | 80 | 100 | 100 | 80 | 100 | 100 | 90 | 100 | – | – | – | – | – | – | herbicidal activity on Pharbitis purpurea [3]: 90%
2 | CCc1c(Sc2cccc(Cl)c2)c(Oc2ncccn2)nn1C [Example I-035] | 100 | – | 100 | – | 90 | 90 | – | 100 | 100 | – | – | – | – | – | herbicidal activity on Stellaria media [11]: 80%
3 | CC(C)n1cc(Sc2ccc(F)cc2)c(Oc2ncccn2)n1 [Example I-039] | – | – | 100 | 100 | 100 | 90 | 100 | 100 | – | 100 | 90 | 90 | 100 | – | herbicidal activity on Avena fatua [13]: 90%
4 | CCn1cc(Sc2ccccc2)c(Oc2ncccn2)n1 [Example I-042] | – | – | – | – | 80 | 80 | 100 | 90 | 80 | – | 90 | – | 100 | – | –
5 | CCc1c(Sc2ccccc2)c(Oc2ncccn2)nn1C [Example I-063] | 100 | 100 | 100 | 100 | 100 | 100 | 90 | 100 | – | 100 | 100 | 100 | – | 100 | herbicidal activity on Alopecurus myosuroides [17]: 100%; herbicidal activity on Setaria viridis [18]: 80%; herbicidal activity on Avena fatua [13]: 100%; herbicidal activity on Hordeum murinum [20]: 100%
6 | CCc1c(Sc2ccc(F)cc2)c(Oc2ncccn2)nn1C [Example I-064] | 80 | 100 | 100 | 100 | 100 | 100 | 100 | 100 | 100 | 90 | 90 | 100 | 100 | 90 | herbicidal activity on Setaria viridis [18]: 100%; herbicidal activity on Stellaria media [11]: 100%
7 | Cc1ccnc(Oc2nn(C)c(C)c2Sc2cccc(Cl)c2)n1 [Example I-096] | 80 | – | – | 100 | 100 | 100 | 90 | 100 | – | 100 | 100 | 100 | 100 | 80 | –
8 | Cc1c(Sc2ccc(F)cc2F)c(Oc2ncc(F)cn2)nn1C [Example I-115] | 100 | 100 | 100 | 100 | 100 | 100 | 90 | 100 | 90 | 90 | 90 | 90 | 100 | 100 | herbicidal activity on Setaria viridis [18]: 100%; herbicidal activity on Stellaria media [11]: 100%; herbicidal activity on Lolium rigidum [21]: 80%
9 | CCn1cc(Sc2ccc(F)cc2)c(Oc2ncc(Cl)cn2)n1 [Example I-121] | – | 80 | 80 | – | 100 | 90 | 80 | 100 | 80 | – | – | 90 | 100 | – | –
10 | CCn1cc(Sc2ccccc2)c(Oc2ncc(Cl)cn2)n1 [Example I-138] | – | – | 80 | 80 | – | 100 | – | 90 | – | – | – | 80 | 100 | – | –
11 | COc1cnc(Oc2nn(C)c(C)c2Sc2ccc(F)cc2Cl)nc1 [Example I-156] | – | 100 | 100 | 90 | 100 | 100 | 100 | 100 | 80 | – | 100 | 100 | – | 80 | –
12 | CCn1cc(Sc2ccc(Cl)cc2)c(Oc2ncc(F)cn2)n1 [Example I-160] | – | – | 100 | – | – | – | – | 100 | – | – | – | 80 | 100 | – | –
13 | CCc1c(Sc2cccc(F)c2)c(Oc2ncc(F)cn2)nn1C [Example I-203] | 100 | 100 | 100 | 90 | 100 | 100 | 80 | 90 | – | 90 | 80 | 80 | 100 | 80 | herbicidal activity on Pharbitis purpurea [3]: 90%; herbicidal activity on Setaria viridis [18]: 90%; herbicidal activity on Stellaria media [11]: 90%
14 | Cn1cc(Sc2ccc(Cl)cc2)c(Oc2cnc(Cl)nc2)n1 [Example I-230] | – | – | 80 | – | – | – | – | – | – | – | – | – | – | – | –
